Measured values as given in patent publication US9975944B2, “Synthetic peptides for the treatment of autoimmune diseases” (TEL HASHOMER MEDICAL RESEARCH INFRASTRUCTURE AND SERVICES …, priority 2013, dated 2018).
Square brackets hold non-standard residues; d marks the D form. Ends that are not written are not given here. Cit = NC(=O)NCCC[C@H](N)C(=O)O

Columns and labels:
[1] = test system: TGF-β; experiment: TGF-β gene expression in peripheral blood mononuclear cells of RA patients, real-time PCR; assay type: cell-based, human; settings: for mean expression levels of TGF-β: PBMC from 6 RA patients, compared with matched non-citrullinated peptide; for TGF-β gene expression level: PBMC of RA patients, 24 h incubation, peptide 0.25 or 1.25 μg/ml, compared with control non-citrullinated peptides
Source text: (§1) Citrullinated peptide derived from filaggrin, set forth in SEQ ID NO: 3, (HQCHQESTCitGRSRGRCGRSGS) designated Fil-Cit and citrullinated peptide derived from β-fibrinogen sequence (designated β-Fib-Cit) set forth in SEQ ID NO: 2 (CitPAPPPISGGGYCitACit) were examined for their ability to immunomodulate cytokine expression in peripheral blood mononuclear cells from rheumatoid arthritis patients. Matched non-citrullinated forms of those peptides served as control, and were designated Fil-NC and β-Fib-NC, respectively. All rheumatoid arthritis patients who participated in the study signed an informed consent and the research was approved by the Sheba Helsinki committee (approval No 9247-12-SMC). All procedures were conducted according to good clinical practice (GCP) regulations.
(§2) Peripheral blood mononuclear cells were isolated from blood samples using Ficoll-Paque density gradient centrifugation. The extracted cells were cultivated in the presence of Fil-Cit (0.25 μg/ml or 1.25 μg/ml), β-Fib-Cit (0.25 μg/ml or 1.25 μg/ml) and the control matched peptides. Total RNA was extracted 24 h after incubation with the peptides.
To further investigate the ex vivo effects of the citrullinated peptides on TGF-β expression, peripheral blood mononuclear cells obtained from 6 rheumatoid arthritis patients were cultured in the presence of citrullinated or control peptides. […] Up-regulation was likewise indicated in peripheral blood mononuclear cells incubated with Fil-Cit.

[2] = test system: IFN-γ; experiment: IFN-γ gene expression in peripheral blood mononuclear cells of RA patients, real-time PCR; assay type: cell-based, human; settings: PBMC of RA patients, 24 h incubation, peptide 0.25 or 1.25 μg/ml, compared with control non-citrullinated peptides
Source text: as §1, §2

[3] = test system: TNF-α; experiment: TNF-α gene expression in peripheral blood mononuclear cells of RA patients, real-time PCR; assay type: cell-based, human; settings: PBMC of RA patients, 24 h incubation, peptide 0.25 or 1.25 μg/ml, compared with control non-citrullinated peptides
Source text: as §1, §2

[4] = test system: IL-17; experiment: IL-17 gene expression in peripheral blood mononuclear cells of RA patients, real-time PCR; assay type: cell-based, human; settings: PBMC of RA patients, 24 h incubation, peptide 0.25 or 1.25 μg/ml, compared with control non-citrullinated peptides
Source text: as §1, §2

[5] = test system: CD4+CD25+Foxp3+ T cells; experiment: Regulatory T cell proportion in PBMC of RA patients, FACS; assay type: cell-based, human; settings: 48 hours
Description: Given the observed immunomodulation of cytokines following incubation of peripheral blood mononuclear cells obtained from rheumatoid arthritis patients with citrullinated peptides, the citrullinated peptides were tested for their ability to exert an effect on the T regulatory population proportion. Peripheral blood mononuclear cells of rheumatoid arthritis patients were cultured in the presence of 1.25 μg/ml of the peptides (Fil-Cit, β-Fib-Cit, and Cit-ME; FIGS. 6A, 6B and 6E, respectively, and Fil-NC, β-Fib-NC and Non-Cit-ME; FIGS. 6C, 6D and 6G, respectively), and Infliximab (FIG. 6F) for 48 hours. Cells cultured with medium devoid of the peptides and Infliximab served as control (FIG. 6H). Thereafter, cells were stained for the expression of CD4, CD25, and FoxP3 and analyzed by FACS. […] Mean percentage of CD4^+CD25^+Foxp3^+ T cells in the presence of Infliximab was increased by 14% as compared to medium (FIG. 6F and FIG. 6H, respectively). Thus, citrullinated peptides are able to induce the expansion of the T regulatory cell population.

[6] = test system: pathogenic Th17 cells; experiment: Pathogenic Th17 cell proportion in PBMC of RA patients, FACS; assay type: cell-based, human; settings: 48 hours
Description: To assess ability of the citrullinated peptides to affect the pathogenic Th17 cells population proportion, peripheral blood mononuclear cells of rheumatoid arthritis patients were cultured in the presence of citrullinated peptides, non-citrullinated peptides and Infliximab for 48 hours. In the last 4 hours phorbol12-myristate 13-acetate (PMA), ionomycin and brefeldin A were added to the culture. Thereafter cells were stained with antibodies against CD3 and IL-17. As shown in FIGS. 7A-7H, significant down-regulation in the mean percentage of pathogenic Th17 cells was detected following incubation with the citrullinated peptides: decrease of 21% (Fil-Cit; E), 5% (β-Fib-Cit; F), and 26% (Cit-ME; G) as compared with the non-citrullinated matched peptides (FIG. 7A-7C, respectively). Mean percentage of pathogenic Th17 cells in the presence of Infliximab was decreased by 48% (FIG. 7H) as compared to medium (FIG. 7D).

[7] = test system: T cells; experiment: T cells apoptosis in PBMC of RA patients, annexin V/PI FACS; assay type: cell-based, human; settings: 24 hours, gated on PI negative cells
Description: To assess the ability of the citrullinated peptides to affect T cells apoptosis, peripheral blood mononuclear cells of rheumatoid arthritis patients were cultured in the presence of citrullinated, non-citrullinated peptides and Infliximab for 24 hours. Cells were double-stained for annexin V-fluorescein isothiocyanate (FITC) and PI-PE (apoptosis/necrosis markers) and analyzed by FACS. The results in FIG. 8 are presented after gating for PI negative cells (live cells). The β-Fib-Cit and Cit-ME (FIGS. 8A and 8B, respectively) induced T cells apoptosis (by 20% and 18%, respectively) as compared with the non-citrullinated peptides Non-Cit-β-Fib (FIG. 8D) and Non-Cit-ME (FIG. 8E). Infliximab induced apoptosis by 28% (FIG. 8C) as compared with the medium control (FIG. 8F).

[8] = test system: TNF-α; experiment: TNF-α gene expression in mononuclear cells derived from synovial fluid of RA patients, real-time PCR; assay type: cell-based, human; settings: compared to medium alone (control)
Description: To assess the effect of the Cit-ME peptide (SEQ ID NO: 1) on inflammatory related genes expression, peripheral blood mononuclear cells derived from synovial fluid rheumatoid arthritis patients were incubated with the Cit-ME multi-epitope citrullinated peptide for 24 h. The effect of the peptide on gene expression was compared also to the effect of infliximab, a TNF-α blocker, which is an antirheumatic drug that acts as an anti-inflammatory compound. […] Results were determined by real-time PCR.

[9] = test system: AIA rats; experiment: Adjuvant-Induced Arthritis (AIA) in rats, paw swelling and clinical signs; assay type: in vivo, rat; settings: AIA rats, 8 subcutaneous injections of 300 μg per rat on alternate days from day 7
[10] = test system: AIA rats; experiment: Histological signs of arthritis in ankle joints of AIA rats; assay type: in vivo, rat; settings: day 28 post disease induction, H&E, untreated 1.75±0.41
Description: To evaluate the histological signs of arthritis, rats were sacrificed and ankle joints were collected on day 28 post disease induction. The joints were fixed immediately for 24 hours in 4% paraformaldehyde, then decalcified in rapid bone decalcifier (RDO; Apex Engineering, Plainfield, Ill., USA) for 6 hours at room temperature, and further fixed in 4% paraformaldehyde before embedding in paraffin. Sections (5 μm thick) were rehydrated in a graded ethanol series and stained with haematoxylin & eosin (H&E). FIGS. 11A to 11C show representative H&E stained joint tissue sections (magnification ×100). Arrowheads denote the infiltrated zones, scale bar=200 μm. The specimens were scored for severity of inflammation in the synovium, pannus formation, cartilage, and bone erosion. A close correlation between the clinical signs and the histopathological findings was found.

[11] = test system: CD4+CD25+FoxP3+ regulatory T cells; experiment: Regulatory T cells in splenocytes of AIA rats, FACS; assay type: in vivo, rat
Source text: Splenocytes from rats at day 28 post disease induction were stained with anti-CD4-FITC, anti-CD25-APC, and anti-Foxp3-PE (eBioscience) mAbs and analyzed by FACS. In representative outputs as shown in FIG. 12A-C, Regulatory T cells subpopulation was higher in Cit-ME treated rats (9%), compared to 7% and 6.2% in Non-Cit-ME peptide and untreated rats, respectively. Statistical analysis of the results is shown in FIG. 12D (Cit-ME n=9, Non-Cit-ME n=11, untreated rats n=7).

[12] = test system: T cells derived from the spleen; experiment: Apoptosis of T cells from the spleen of AIA rats, Annexin V/PI staining; assay type: in vivo, rat; settings: gated for PI and CD4+, two independent experiments, control 13±1%
Description: To assess apoptosis of T cells derived from the spleen of treated rats, the Annexin V/PI staining method was preformed. FIGS. 14A-14C are representative histograms of cells treated with Cit-Me (FIG. 14A), non-Cit-Me (FIG. 14B) or untreated (FIG. 14C). The histograms present apoptosis measured by Annexin V^+. First, cells were gated for PI and CD4^+ and next analyzed for percentage of Annexin-V positive cells. […] A significant increase (p<0.01) in the mean apoptotic rate was determined in cells from the spleen of Cit-ME treated rats (19.5±1.8%) in comparison with Non-Cit-ME or control (13.8±1.3% and 13±1%, respectively).

[13] = 1.25 μg/ml peptide, compared with non-citrullinated matched peptide
[14] = PMA, ionomycin and brefeldin A in last 4 hours, compared with non-citrullinated matched peptide

Substance | mean expression levels of TGF-β [1] | TGF-β gene expression level [1] | IFN-γ gene expression level [2] | TNF-α gene expression level [3] | IL-17 gene expression level [4] | increase in mean percentage of CD4+CD25+Foxp3+ T cells [5, 13] | decrease in mean percentage of pathogenic Th17 cells [6, 14] | induction of T cells apoptosis ([7]; compared with matched non-citrullinated peptide) | expression level of TNF-α [8] | increase in mean percentage of CD4+CD25+Foxp3+ T cells ([5]; compared to medium) | decrease in mean percentage of pathogenic Th17 cells ([6]; compared to medium) | induction of apoptosis ([7]; compared with the medium control) | clinical score post immunization [9] | histological inflammatory score [10] | percentage of CD4+CD25+FoxP3+ regulatory T cells subset, statistical analysis ([11]; spleens of AIA rats, day 28, untreated 7.17±0.31) | Regulatory T cells subpopulation, representative outputs ([11]; splenocytes of AIA rats, day 28 post disease induction, untreated 6.2%) | mean apoptotic rate (Annexin-V positive cells) [12]
CitPAPPPISGGGYCitACit ([Cit]PAPPPISGGGY[Cit]A[Cit]) [β-Fib-Cit] | significantly up-regulated | significantly up-regulated | down-regulated | down-regulated | down-regulated | 50% | 5% | 20% |  |  |  |  |  |  |  |  | 
HQCHQESTCitGRSRGRCGRSGS (HQCHQEST[Cit]GRSRGRCGRSGS; cysteine pairing not given here) [Fil-Cit, citrullinated peptide derived from filaggrin] | Up-regulation | significantly up-regulated | down-regulated | down-regulated | down-regulated | 56% | 21% |  |  |  |  |  |  |  |  |  | 
Infliximab: a TNF-α blocker, an antirheumatic drug that acts as an anti-inflammatory compound [reference compound] |  |  |  |  |  |  |  |  | downregulated | 14% | 48% | 28% |  |  |  |  | 
VRLRSSVESTRGRSRPAPPPARGLT [Non-Cit-ME] |  |  |  |  |  |  |  |  |  |  |  |  | Reduction in clinical score | 1.28±0.6 | 6.97±0.22% | 7% | 13.8±1.3%
